Measured values published in ChEMBL document CHEMBL4011599, “Coumarin sulfonates: New alkaline phosphatase inhibitors; in vitro and in silico studies” (Eur J Med Chem, 2017).

Key:
[1] = target: T1, Intestinal-type alkaline phosphatase (Homo sapiens, UniProt P09923); assay: Inhibition of human IAP using CDP-star as substrate pretreated for 10 mins followed by substrate addition measured after 10 mins by […] method
Target sequence in this assay (P09923 whole entry): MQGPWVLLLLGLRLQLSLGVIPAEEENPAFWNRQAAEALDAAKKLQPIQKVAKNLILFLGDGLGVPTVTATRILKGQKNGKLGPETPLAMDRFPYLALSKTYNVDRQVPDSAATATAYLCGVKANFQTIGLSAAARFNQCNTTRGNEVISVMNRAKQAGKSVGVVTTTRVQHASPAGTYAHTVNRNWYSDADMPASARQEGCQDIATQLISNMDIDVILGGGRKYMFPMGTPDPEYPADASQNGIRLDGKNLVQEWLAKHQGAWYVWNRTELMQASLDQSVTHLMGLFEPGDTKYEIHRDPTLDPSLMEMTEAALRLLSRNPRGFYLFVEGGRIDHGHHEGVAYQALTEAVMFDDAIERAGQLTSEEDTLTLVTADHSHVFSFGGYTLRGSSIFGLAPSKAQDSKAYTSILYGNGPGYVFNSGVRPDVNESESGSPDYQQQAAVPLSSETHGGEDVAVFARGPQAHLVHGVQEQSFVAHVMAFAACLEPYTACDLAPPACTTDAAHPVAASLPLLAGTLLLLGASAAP

[2] = target: T2, Alkaline phosphatase, tissue-nonspecific isozyme (Homo sapiens, UniProt P05186); assay: Inhibition of human TNAP using CDP-star as substrate pretreated for 10 mins followed by substrate addition measured after 10 mins by […] method
T2 sequence (P05186 whole entry): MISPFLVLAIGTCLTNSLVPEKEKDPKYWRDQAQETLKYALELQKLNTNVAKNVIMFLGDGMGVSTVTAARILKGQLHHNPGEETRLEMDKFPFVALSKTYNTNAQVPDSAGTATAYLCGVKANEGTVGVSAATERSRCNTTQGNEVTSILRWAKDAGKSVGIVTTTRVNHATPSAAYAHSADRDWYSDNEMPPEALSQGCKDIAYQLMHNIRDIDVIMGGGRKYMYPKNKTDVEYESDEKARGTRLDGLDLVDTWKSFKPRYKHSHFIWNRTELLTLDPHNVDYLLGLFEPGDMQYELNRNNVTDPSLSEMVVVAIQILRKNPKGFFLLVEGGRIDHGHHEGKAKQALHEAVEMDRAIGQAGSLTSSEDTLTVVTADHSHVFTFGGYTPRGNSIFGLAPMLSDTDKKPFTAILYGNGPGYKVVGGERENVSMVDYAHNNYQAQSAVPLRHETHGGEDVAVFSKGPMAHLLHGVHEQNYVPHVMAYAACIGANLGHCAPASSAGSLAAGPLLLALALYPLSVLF

[3] = target: T1, Intestinal-type alkaline phosphatase; assay: Potency index, ratio of levamisole IC50 to compound IC50 for human IAP
Target sequence in this assay (P09923 20-503 limits assumed): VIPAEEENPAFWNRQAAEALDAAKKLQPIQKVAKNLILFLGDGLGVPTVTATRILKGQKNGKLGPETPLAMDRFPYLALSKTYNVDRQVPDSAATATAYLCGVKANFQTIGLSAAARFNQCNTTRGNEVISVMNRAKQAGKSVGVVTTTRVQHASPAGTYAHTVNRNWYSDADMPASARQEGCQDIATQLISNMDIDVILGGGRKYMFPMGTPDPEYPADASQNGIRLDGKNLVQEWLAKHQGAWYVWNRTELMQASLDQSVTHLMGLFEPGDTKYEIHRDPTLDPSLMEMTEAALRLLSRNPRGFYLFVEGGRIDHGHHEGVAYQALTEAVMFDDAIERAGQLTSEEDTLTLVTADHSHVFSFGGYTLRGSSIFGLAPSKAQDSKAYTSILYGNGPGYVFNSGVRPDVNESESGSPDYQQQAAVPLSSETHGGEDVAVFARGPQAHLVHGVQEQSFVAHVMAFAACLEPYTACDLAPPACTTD

IC50 ([1]; read-out: IC50) | IC50 ([2]; read-out: IC50) | Ratio IC50 [3] | IC50 [1] | IC50 [2] | SMILES
20.2 µM |  |  |  |  | c1ccc([C@H]2CN3CCSC3=N2)cc1 [LEVAMISOLE]
2.81 µM | 0.92 µM | 7 |  |  | CCCCCCCCS(=O)(=O)Oc1ccc2c(C)c(C#N)c(=O)oc2c1
2.72 µM | 2.31 µM |  |  |  | Cc1cc(=O)oc2cc(OS(=O)(=O)c3ccc(Cl)c([N+](=O)[O-])c3)ccc12
 | 100 µM |  |  |  | N[C@@H](Cc1ccccc1)C(=O)O [PHENYLALANINE]
5.52 µM | 10.3 µM |  |  |  | Cc1c(Cl)c(=O)oc2cc(OS(=O)(=O)c3ccccc3)ccc12
5.16 µM | 2.42 µM |  |  |  | Cc1c(C#N)c(=O)oc2cc(OS(=O)(=O)c3cccc([N+](=O)[O-])c3)ccc12
 | 3.53 µM |  | Not Active |  | Cc1c(C#N)c(=O)oc2cc(OS(=O)(=O)c3ccccc3)ccc12
10.3 µM | 0.92 µM |  |  |  | CCCCCCCCS(=O)(=O)Oc1ccc2c(C)cc(=O)oc2c1OS(=O)(=O)CCCCCCCC
3.22 µM | 1.64 µM |  |  |  | CCCCS(=O)(=O)Oc1ccc2c(C)c(Cl)c(=O)oc2c1
2.26 µM | 2.47 µM |  |  |  | Cc1c(C#N)c(=O)oc2cc(OS(=O)(=O)c3cc(Cl)ccc3Cl)ccc12
4.06 µM |  |  |  | Not Active | CCS(=O)(=O)Oc1ccc2c(C)c(C#N)c(=O)oc2c1
 | 1.99 µM |  | Not Active |  | Cc1c(C#N)c(=O)oc2cc(OS(C)(=O)=O)ccc12
